According to ChEMBL document CHEMBL5518164, “Membrane-permeable tenofovir-di- and monophosphate analogues” (Eur J Med Chem, 2024):
Calls of active or inactive are those of the source. The rule behind the calls is not given here.

What was measured:
[1] = tested on: Human immunodeficiency virus; experiment: Substrate activity at HIV reverse transcriptase assessed as n+1 band formation incubated for 30 mins in presence of primer/template mixture and dNTPs by primer extension assay based fluorescence analysis
[2] = biological target: DNA polymerase beta (Homo sapiens) (UniProt P06746); experiment: Substrate activity at human DNA polymerase beta assessed as n+1 band formation incubated for 120 mins in presence of primer/template mixture and dNTPs by primer extension assay based fluorescence analysis
[3] = Half life of the compound in heparin-stabilized human plasma by HPLC analysis; type: ADME, cell-free
[4] = tested on: Human immunodeficiency virus 2; experiment: Antiviral activity against HIV-2 ROD infected in wild type human CEM/0 cells assessed as inhibition of virus-induced giant cell formation incubated for 4 to 5 days by light microscopy; type: functional, organism-based; conditions: Human immunodeficiency virus 2, ROD, CCRF-CEM
[5] = biological target: T1, DNA polymerase alpha catalytic subunit (Homo sapiens) (UniProt P09884); experiment: Substrate activity at human DNA polymerase alpha assessed as n+1 band formation incubated for 60 mins in presence of primer/template mixture and dNTPs by primer extension assay based fluorescence analysis
T1 sequence (whole entry): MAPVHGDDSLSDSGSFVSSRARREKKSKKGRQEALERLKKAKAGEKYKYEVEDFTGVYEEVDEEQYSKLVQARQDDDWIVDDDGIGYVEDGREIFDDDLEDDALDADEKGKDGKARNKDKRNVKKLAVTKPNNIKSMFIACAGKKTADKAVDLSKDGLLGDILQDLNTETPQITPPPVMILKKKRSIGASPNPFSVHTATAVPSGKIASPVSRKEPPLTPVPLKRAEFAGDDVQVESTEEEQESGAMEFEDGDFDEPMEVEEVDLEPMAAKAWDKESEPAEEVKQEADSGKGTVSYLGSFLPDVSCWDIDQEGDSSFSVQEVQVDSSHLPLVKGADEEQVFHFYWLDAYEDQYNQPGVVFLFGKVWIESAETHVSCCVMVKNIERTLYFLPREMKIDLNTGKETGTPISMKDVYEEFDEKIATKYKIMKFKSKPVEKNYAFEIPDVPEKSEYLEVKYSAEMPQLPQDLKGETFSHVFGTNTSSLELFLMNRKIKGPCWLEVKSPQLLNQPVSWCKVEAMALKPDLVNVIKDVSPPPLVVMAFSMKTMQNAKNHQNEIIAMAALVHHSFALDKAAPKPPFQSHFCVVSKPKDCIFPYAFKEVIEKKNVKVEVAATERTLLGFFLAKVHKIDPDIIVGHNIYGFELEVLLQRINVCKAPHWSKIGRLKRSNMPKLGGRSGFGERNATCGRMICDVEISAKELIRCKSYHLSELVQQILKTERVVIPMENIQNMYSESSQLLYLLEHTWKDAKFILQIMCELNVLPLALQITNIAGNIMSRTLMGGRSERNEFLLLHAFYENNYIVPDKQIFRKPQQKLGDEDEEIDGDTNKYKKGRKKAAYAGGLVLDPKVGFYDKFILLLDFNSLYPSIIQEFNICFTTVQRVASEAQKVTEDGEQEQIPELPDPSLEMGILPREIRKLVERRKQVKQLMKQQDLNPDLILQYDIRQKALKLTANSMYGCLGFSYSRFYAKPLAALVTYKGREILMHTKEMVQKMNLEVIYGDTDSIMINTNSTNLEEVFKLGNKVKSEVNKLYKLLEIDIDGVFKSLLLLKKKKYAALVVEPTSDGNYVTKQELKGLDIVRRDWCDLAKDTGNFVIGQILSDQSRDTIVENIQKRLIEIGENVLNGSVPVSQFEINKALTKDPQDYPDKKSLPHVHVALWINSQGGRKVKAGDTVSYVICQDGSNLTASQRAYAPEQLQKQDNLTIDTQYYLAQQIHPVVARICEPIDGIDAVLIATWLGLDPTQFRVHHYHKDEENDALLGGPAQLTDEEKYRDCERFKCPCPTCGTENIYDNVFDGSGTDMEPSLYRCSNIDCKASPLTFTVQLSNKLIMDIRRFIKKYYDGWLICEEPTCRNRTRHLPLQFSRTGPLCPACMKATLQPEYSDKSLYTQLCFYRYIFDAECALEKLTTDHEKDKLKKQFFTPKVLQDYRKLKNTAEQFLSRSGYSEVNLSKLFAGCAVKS

[6] = Half life of the compound in phosphate buffer saline in presence of pig liver esterase at pH 7.3 by RP18-HPLC analysis; type: ADME, Sus scrofa
[7] = Lipophilicity of the compound assessed as retention time by RP-HPLC analysis; type: physicochemical
[8] = Drug metabolism in heparin-stabilized human plasma assessed as (R)-9-(2-(phosphonomethoxy)propyl)adenine formation by HPLC analysis; type: ADME, cell-free
[9] = tested on: Human immunodeficiency virus 2; experiment: Antiviral activity against HIV-2 ROD infected in thymidine kinase deficient human CEM cells assessed as inhibition of virus-induced giant cell formation incubated for 4 to 5 days by light microscopy; type: functional, organism-based; conditions: Human immunodeficiency virus 2, ROD, CCRF-CEM
[10] = Half life of the compound in human CEM/0 cell extracts by RP18-HPLC analysis; type: ADME, CCRF-CEM
[11] = Half life of the compound in phosphate buffer saline at pH 7.3 by RP18-HPLC analysis; type: ADME

| Activity [1] | Activity [2] | half-life [3] [min] | EC50 [4] [nM] | Activity [5] | half-life [6] [days] | Retention_time [7] [min] | Drug metabolism [8] | EC50 [9] [nM] | half-life [10] [min] | half-life [11] [days] | Compound |
| --- | --- | --- | --- | --- | --- | --- | --- | --- | --- | --- | --- |
| inactive | inactive | > 300 | 3 | inactive | 1 | 18.1 | Metabolite_Detected | 2 | 306 | 1.12 | CCCCCCCCCCCCCCCCCCP(=O)(OCCCC)OP(=O)(O)CO[C@H](C)Cn1cnc2c(N)ncnc21 (stereo partly drawn) |
| Active | inactive | > 480 | 19 | inactive | > 4.17 | 15.5 | Metabolite_Detected | 12 | > 1200 | 10.7 | CCCCCCCCCCCCCCCCCCOP(=O)(OCCCC)OP(=O)(O)OP(=O)(O)CO[C@H](C)Cn1cnc2c(N)ncnc21 (stereo partly drawn) |
| inactive | inactive | > 480 | 62 | inactive | > 4.17 | 15.2 | Metabolite_Detected | 33 | > 480 | > 20.8 | CCCCCCCCCCCCCCCCCCP(=O)(OCCCC)OP(=O)(O)OP(=O)(O)CO[C@H](C)Cn1cnc2c(N)ncnc21 (stereo partly drawn) |
